# Assay results from US20220226496A1, “LIGAND-DRUG CONJUGATE INCLUDING LINKER HAVING TRIS STRUCTURE” (LEGOCHEM BIOSCIENCES, INC., priority 2019, published 2022).
# Non-standard residues stand in square brackets, D forms with d. Residues, ends and D or L forms follow the SMILES beside them. *: point of attachment. Dolaproine = CO[C@@H]([C@@H]1CCCN1)[C@@H](C)C(=O)O; Dil = CC[C@H](C)[C@H](NC)[C@@H](CC(=O)O)OC; X1 = C[C@@H](N*)[C@@H](O)c1ccccc1; NMeV = CN[C@H](C(=O)O)C(C)C
# Tests used:
# Experiment in all cases: In vitro cytotoxicity evaluation (cell proliferation inhibition, SRB dye)
# Assay type in all cases: cell-based, human
# JIMT-1 (HER2 positive) = conditions: JIMT-1 cells, SRB viable cell count; no 144 h footnote (168-hour treatment group)
# Description: (§1) The cell proliferation inhibitory activity of the drug and ADCs listed in Table 2 below on cancer cell lines was measured. As the cancer cell lines, commercially available human breast cancer cell lines MCF-7 (HER2 negative to normal), SK-BR3 (HER2 positive), and JIMT-1 (HER2 positive) were used. MMAE was used as the drug, and the ADCs in Table 1 were used as the ADC. Each cancer cell line was seeded in a 96-well plate at 2,500 to 5,000 cells per well for 144-hour treatment group and 1,500 to 3,000 cells per well for 168-hour treatment group, cultured for 24 hours, and then treated with the ADCs and drug at concentrations of 0.00015 to 10.0 nM (4-fold serial dilution) or 0.0015 to 10 nM (3-fold serial dilution). After 144/168 hours, the number of viable cells was quantified using SRB (sulforhodamine B) dye.
# [1] = system: MCF-7 (HER2 negative to normal); conditions: MCF7 cells, SRB viable cell count; no 144 h footnote (168-hour treatment group)
# Description: as §1
# SK-BR3 (HER2 positive) = conditions: SK-BR3 cells, SRB viable cell count; no 144 h footnote (168-hour treatment group)
# Description: as §1
smiles,measurement,setting,value
"CC[C@H](C)[C@@H]([C@@H](CC(=O)N1CCC[C@H]1[C@H](OC)[C@@H](C)C(=O)N[C@H](C)[C@@H](O)c1ccccc1)OC)N(C)C(=O)[C@@H](NC(=O)[C@@H](NC)C(C)C)C(C)C [MMAE, monomethyl auristatin E] (H-[NMeV]V[Dil][Dolaproine]-X1)",CC50,JIMT-1 (HER2 positive),0.09 nM
same,CC50,[1],0.31 nM
same,CC50,SK-BR3 (HER2 positive),0.12 nM
